This note sets out measurements from BindingDB's records for doi:10.1016/S0960-894X(97)00091-7 (1997).

Molecules are shown by their SMILES. Where a SMILES comes first, the peptide text is derived from it. The star is where a group is joined. Cbz = O=C(OCc1ccccc1)*

In assay [1] the target is Chymotrypsinogen A (Bos taurus) (UniProt P00766). Nature of the assay: The compound was tested for the inhibition of alpha-Chymotrypsin, activity expressed as IC50.
The target is the same in assay [2]. The assay is described as above. The source holds these as a separate data set.

As to `C[C@H](NC(=O)OCc1ccccc1)C(=O)N[C@@H](C)C(=O)N[C@H](C=O)Cc1ccccc1` [{1-[1-(1-Benzyl-2-oxo-ethylcarbamoyl)-ethylcarbamoyl]-ethyl}-carbamic acid benzyl ester] (Cbz-Ala-Ala-Phe-aldehyde), the affinity in assay [1], expressed as Ki, was 2200 nM. The compound further returned a concentration for half-maximal inhibition (IC50) in assay [2] of 950 nM.

One may read the Ki as a measure of affinity in units of concentration, obtained from inhibition or displacement. What is called IC50 is the concentration that gives 50% inhibition. Low values mean greater potency in that assay, high ones weaker potency in that assay.
